In ChEMBL document CHEMBL1275492, “In vitro activity of ceftobiprole against pathogens from two phase 3 clinical trials of complicated skin and skin structure infections” (2008):
≈ marks a conversion by molar mass, not a printed value. Each block holds one compound with its values, some of them ahead of it.

Columns and labels:
Format in all cases: functional
[1] = test system: Bacteroides fragilis; experiment: Antibacterial activity against Bacteroides fragilis obtained from complicated skin and skin structure infections by agar dilution method
[2] = test system: Prevotella; experiment: Antibacterial activity against Prevotella spp. obtained from complicated skin and skin structure infections by agar dilution method
[3] = test system: Veillonella; experiment: Antibacterial activity against Veillonella spp. obtained from complicated skin and skin structure infections by agar dilution method
[4] = test system: Proteus mirabilis; experiment: Antibacterial activity against Proteus mirabilis obtained from complicated skin and skin structure infections by agar dilution method
[5] = test system: Streptococcus constellatus; experiment: Antibacterial activity against Streptococcus constellatus obtained from complicated skin and skin structure infections by agar dilution method
[6] = test system: Citrobacter freundii; experiment: Antibacterial activity against Citrobacter freundii obtained from complicated skin and skin structure infections by agar dilution method
[7] = test system: Gemella; experiment: Antibacterial activity against Gemella spp. obtained from complicated skin and skin structure infections by agar dilution method
[8] = test system: Staphylococcus; experiment: Antibacterial activity against methicillin-susceptible, coagulase-negative Staphylococcus obtained from complicated skin and skin structure infections by agar dilution method
[9] = test system: Staphylococcus aureus; experiment: Antibacterial activity against Staphylococcus aureus obtained from complicated skin and skin structure infections by agar dilution method
[10] = test system: Citrobacter braakii; experiment: Antibacterial activity against Citrobacter braakii obtained from complicated skin and skin structure infections by agar dilution method
[11] = test system: Salmonella; experiment: Antibacterial activity against Salmonella spp. obtained from complicated skin and skin structure infections by agar dilution method
[12] = test system: Staphylococcus hominis; experiment: Antibacterial activity against coagulase-negative Staphylococcus hominis obtained from complicated skin and skin structure infections by agar dilution method
[13] = test system: Streptococcus pyogenes; experiment: Antibacterial activity against Streptococcus pyogenes obtained from complicated skin and skin structure infections by agar dilution method
[14] = test system: Micrococcus; experiment: Antibacterial activity against Micrococcus spp. obtained from complicated skin and skin structure infections by agar dilution method
[15] = test system: Staphylococcus haemolyticus; experiment: Antibacterial activity against coagulase-negative Staphylococcus haemolyticus obtained from complicated skin and skin structure infections by agar dilution method
[16] = test system: Staphylococcus epidermidis; experiment: Antibacterial activity against coagulase-negative Staphylococcus epidermidis obtained from complicated skin and skin structure infections by agar dilution method
[17] = test system: Gemella morbillorum; experiment: Antibacterial activity against Gemella morbillorum obtained from complicated skin and skin structure infections […]
[18] = test system: Enterococcus faecalis; experiment: Antibacterial activity against Enterococcus faecalis obtained from complicated skin and skin structure infections by agar dilution method
[19] = test system: Staphylococcus intermedius; experiment: Antibacterial activity against Staphylococcus intermedius obtained from complicated skin and skin structure infections by agar dilution method
[20] = test system: Enterobacter cloacae; experiment: Antibacterial activity against Enterobacter cloacae obtained from complicated skin and skin structure infections by agar dilution method
[21] = test system: Klebsiella aerogenes; experiment: Antibacterial activity against Enterobacter aerogenes obtained from complicated skin and skin structure infections by agar dilution method
[22] = test system: Enterococcus faecium; experiment: Antibacterial activity against Enterococcus faecium obtained from complicated skin and skin structure infections by agar dilution method
[23] = test system: Aerococcus viridans; experiment: Antibacterial activity against Aerococcus viridans obtained from complicated skin and skin structure infections by agar dilution method
[24] = test system: Enterobacter amnigenus; experiment: Antibacterial activity against Enterobacter amnigenus obtained from complicated skin and skin structure infections by agar dilution method; details: Lelliottia amnigena
[25] = Antibacterial activity against Streptococcus sp. 'group C' obtained from complicated skin and skin structure infections by agar dilution method
[26] = test system: Staphylococcus lugdunensis; experiment: Antibacterial activity against methicillin-resistant, oxacillin-susceptible, coagulase-negative, mecA-positive Staphylococcus lugdunensis obtained from complicated skin and skin structure infections by agar dilution method
[27] = test system: Proteus vulgaris; experiment: Antibacterial activity against Proteus vulgaris obtained from complicated skin and skin structure infections by agar dilution method
[28] = test system: Streptococcus mitis; experiment: Antibacterial activity against Streptococcus mitis obtained from complicated skin and skin structure infections by agar dilution method
[29] = test system: Staphylococcus lugdunensis; experiment: Antibacterial activity against coagulase-negative Staphylococcus lugdunensis obtained from complicated skin and skin structure infections by agar dilution method
[30] = test system: Providencia stuartii; experiment: Antibacterial activity against Providencia stuartii obtained from complicated skin and skin structure infections by agar dilution method
[31] = test system: Staphylococcus capitis; experiment: Antibacterial activity against coagulase-negative Staphylococcus capitis obtained from complicated skin and skin structure infections by agar dilution method
[32] = test system: Bacillus; experiment: Antibacterial activity against Bacillus spp. obtained from complicated skin and skin structure infections by agar dilution method
[33] = test system: Pseudomonas fluorescens; experiment: Antibacterial activity against Pseudomonas fluorescens obtained from complicated skin and skin structure infections by agar dilution method
[34] = test system: Lactococcus lactis; experiment: Antibacterial activity against Lactococcus lactis obtained from complicated skin and skin structure infections by agar dilution method
[35] = test system: Escherichia coli; experiment: Antibacterial activity against Escherichia coli obtained from complicated skin and skin structure infections by agar dilution method
[36] = test system: Staphylococcus cohnii; experiment: Antibacterial activity against coagulase-negative Staphylococcus cohnii obtained from complicated skin and skin structure infections by agar dilution method
[37] = test system: Klebsiella pneumoniae; experiment: Antibacterial activity against Klebsiella pneumoniae obtained from complicated skin and skin structure infections by agar dilution method
[38] = test system: Acinetobacter baumannii; experiment: Antibacterial activity against Acinetobacter baumannii obtained from complicated skin and skin structure infections by agar dilution method
[39] = test system: Staphylococcus warneri; experiment: Antibacterial activity against coagulase-negative Staphylococcus warneri obtained from complicated skin and skin structure infections by agar dilution method
[40] = Antibacterial activity against Streptococcus sp. 'group G' obtained from complicated skin and skin structure infections by agar dilution method
[41] = test system: Stenotrophomonas maltophilia; experiment: Antibacterial activity against Stenotrophomonas maltophilia obtained from complicated skin and skin structure infections by agar dilution method
[42] = test system: Staphylococcus aureus; experiment: Antibacterial activity against methicillin resistant Staphylococcus aureus obtained from complicated skin and skin structure infections by agar dilution method
[43] = test system: Klebsiella oxytoca; experiment: Antibacterial activity against Klebsiella oxytoca obtained from complicated skin and skin structure infections by agar dilution method
[44] = test system: Streptococcus agalactiae; experiment: Antibacterial activity against Streptococcus agalactiae obtained from complicated skin and skin structure infections by agar dilution method
[45] = test system: Serratia marcescens; experiment: Antibacterial activity against Serratia marcescens obtained from complicated skin and skin structure infections by agar dilution method
[46] = test system: Proteus penneri; experiment: Antibacterial activity against Proteus penneri obtained from complicated skin and skin structure infections by agar dilution method
[47] = test system: Morganella morganii; experiment: Antibacterial activity against Morganella morganii obtained from complicated skin and skin structure infections by agar dilution method
[48] = test system: Staphylococcus aureus; experiment: Antibacterial activity against methicillin susceptible Staphylococcus aureus obtained from complicated skin and skin structure infections by agar dilution method
[49] = test system: Staphylococcus saprophyticus; experiment: Antibacterial activity against coagulase-negative Staphylococcus saprophyticus obtained from complicated skin and skin structure infections by agar dilution method
[50] = test system: Mammaliicoccus sciuri; experiment: Antibacterial activity against coagulase-negative Staphylococcus sciuri obtained from complicated skin and skin structure infections by agar dilution method
[51] = test system: Pseudomonas aeruginosa; experiment: Antibacterial activity against Pseudomonas aeruginosa obtained from complicated skin and skin structure infections by agar dilution method

- MIC [1]: 0.5 µg/mL (≈ 2.92 µM)
- MIC [2]: 0.5 µg/mL (≈ 2.92 µM)
- MIC [3]: 0.5 µg/mL (≈ 2.92 µM)
Structure (SMILES): Cc1ncc([N+](=O)[O-])n1CCO [METRONIDAZOLE]

Structure (SMILES): C[C@H]1COc2c(N3CCN(C)CC3)c(F)cc3c(=O)c(C(=O)O)cn1c23.C[C@H]1COc2c(N3CCN(C)CC3)c(F)cc3c(=O)c(C(=O)O)cn1c23.O [LEVOFLOXACIN]
- MIC50 [4]: ≤ 0.06 µg/mL
- MIC90 [4]: > 8 µg/mL
- MIC [5]: 0.25 µg/mL
- MIC50 [5]: 0.25 µg/mL
- MIC90 [5]: 1 µg/mL
- MIC50 [6]: ≤ 0.06 µg/mL
- MIC90 [6]: 8 µg/mL
- MIC50 [7]: 0.5 µg/mL
- MIC90 [7]: 4 µg/mL
- MIC50 [8]: 0.12 µg/mL
- MIC90 [8]: 0.25 µg/mL
- MIC50 [9]: 0.12 µg/mL
- MIC90 [9]: 4 µg/mL
- MIC50 [10]: ≤ 0.06 µg/mL
- MIC90 [10]: 8 µg/mL
- MIC50 [11]: ≤ 0.06 µg/mL
- MIC90 [11]: 8 µg/mL
- MIC50 [12]: 0.12 µg/mL
- MIC90 [12]: 8 µg/mL
- MIC50 [13]: 0.5 µg/mL
- MIC90 [13]: 0.5 µg/mL
- MIC50 [14]: 0.5 µg/mL
- MIC90 [14]: 4 µg/mL
- MIC50 [15]: 0.12 µg/mL
- MIC90 [15]: 8 µg/mL
- MIC50 [16]: 0.12 µg/mL
- MIC90 [16]: 8 µg/mL
- MIC50 [17]: 0.5 µg/mL
- MIC90 [17]: 4 µg/mL
- MIC50 [18]: 1 µg/mL
- MIC90 [18]: 2 µg/mL
- MIC [19]: ≤ 0.03 µg/mL
- MIC50 [19]: ≤ 0.03 µg/mL
- MIC90 [19]: 0.12 µg/mL
- MIC50 [20]: 0.06 µg/mL
- MIC90 [20]: 4 µg/mL
- MIC50 [21]: ≤ 0.06 µg/mL
- MIC90 [21]: 8 µg/mL
- MIC50 [22]: 4 µg/mL
- MIC50 [23]: 0.5 µg/mL
- MIC90 [23]: 4 µg/mL
- MIC50 [24]: ≤ 0.06 µg/mL
- MIC90 [24]: 8 µg/mL
- MIC50 [25]: 0.5 µg/mL
- MIC90 [25]: 0.5 µg/mL
- MIC50 [26]: 0.25 µg/mL
- MIC90 [26]: > 8 µg/mL
- MIC50 [27]: ≤ 0.06 µg/mL
- MIC90 [27]: 8 µg/mL
- MIC [28]: ≤ 0.03 µg/mL
- MIC50 [28]: ≤ 0.03 µg/mL
- MIC90 [28]: 0.12 µg/mL
- MIC50 [29]: 0.12 µg/mL
- MIC90 [29]: 8 µg/mL
- MIC50 [30]: ≤ 0.06 µg/mL
- MIC90 [30]: 8 µg/mL
- MIC50 [31]: 0.12 µg/mL
- MIC90 [31]: 8 µg/mL
- MIC50 [32]: 0.5 µg/mL
- MIC90 [32]: 4 µg/mL
- MIC50 [33]: 4 µg/mL
- MIC90 [33]: 8 µg/mL
- MIC50 [34]: 0.5 µg/mL
- MIC90 [34]: 4 µg/mL
- MIC50 [35]: 0.03 µg/mL
- MIC90 [35]: 1 µg/mL
- MIC50 [36]: 0.12 µg/mL
- MIC90 [36]: 8 µg/mL
- MIC50 [37]: 0.06 µg/mL
- MIC90 [37]: 4 µg/mL
- MIC50 [38]: 4 µg/mL
- MIC90 [38]: 8 µg/mL
- MIC50 [39]: 0.12 µg/mL
- MIC90 [39]: 8 µg/mL
- MIC50 [40]: 0.5 µg/mL
- MIC90 [40]: 0.5 µg/mL
- MIC50 [41]: 4 µg/mL
- MIC90 [41]: 8 µg/mL
- MIC50 [42]: 4 µg/mL
- MIC90 [42]: 8 µg/mL
- MIC50 [43]: ≤ 0.06 µg/mL
- MIC90 [43]: 8 µg/mL
- MIC [44]: 0.5 µg/mL
- MIC50 [44]: 0.5 µg/mL
- MIC90 [44]: 1 µg/mL
- MIC50 [45]: ≤ 0.06 µg/mL
- MIC90 [45]: 8 µg/mL
- MIC50 [46]: ≤ 0.06 µg/mL
- MIC90 [46]: 8 µg/mL
- MIC50 [47]: 1 µg/mL
- MIC90 [47]: 64 µg/mL
- MIC50 [48]: 0.12 µg/mL
- MIC90 [48]: 0.5 µg/mL
- MIC50 [49]: 0.12 µg/mL
- MIC90 [49]: 8 µg/mL
- MIC50 [50]: 0.12 µg/mL
- MIC90 [50]: 8 µg/mL
- MIC50 [51]: 4 µg/mL
- MIC90 [51]: 64 µg/mL
